Experimental data as given in patent US9475750B2, “Phenylketone carboxylate compounds and pharmaceutical uses thereof” (PROMETIC BIOSCIENCES INC., priority 2010, dated 2016).
Entries after “also recorded” stand apart in the source; their conditions may differ.

What was measured:
[1] = tested on: Normal Human Dermal Fibroblasts (NHDF); assay: TGF-β induced CTGF production on normal human dermal fibroblasts (ELISA); assay type: cell-based; settings: 10 ng/mL TGF-β, 48 h
Experimental: The effect of selected compounds on CTGF production was undertaken in NHDF. Cells were cultured in DMEM (0.5% FBS) with or without 10 ng/mL of TGF-β for 48 h in a humidified atmosphere of 95% air-5% carbon dioxide at 37° C. CTGF production in the culture medium was measured using the CTGF ELISA according to the manufacturer (Prepotech) recommendations. Table 3 represents the effect of selected representative compounds on the inhibition of TGF-βCTGF production in normal human dermal fibroblast (NHDF).

[2] = tested on: LPS-stimulated RAW264.7 (macrophage-like) cells; assay: IL-12 production on LPS-stimulated RAW264.7 cells (ELISA); assay type: cell-based; settings: in the presence of LPS
Experimental: The effect of selected compounds on IL-12 production was undertaken in RAW264.7 (macrophage-like) cells. RAW264.7 cells were cultured with 100 ng/mL of LPS in presence or absence of compounds for 21 h in a humidified atmosphere of 95% air-5% carbon dioxide at 37° C. IL-12 concentration in the culture medium was measured using the IL-12 ELISA according to the manufacturer (BD Biosciences) recommendations.

[3] = tested on: doxorubicin-induced nephrotoxicity mouse model; assay: Renal protection in doxorubicin-induced nephrotoxicity model; assay type: in vivo, C57BL/6 mice; settings: for serum albumin: oral prophylactic treatment day -3 to 10, doxorubicin 10 mg/kg iv day 0, day 11 (FIG. 2)
Experimental: C57BL/6 mice (6 to 10 week old) were treated with compounds prophylacticly from day −3 to day 10. Nephrotoxicity was induced by an intravenous injection of 10 mg/kg of doxorubicin at day 0. Serum albumin was monitored at day 11.

[4] = tested on: cyclophosphamide immunosuppressed mice; assay: Chemoprotection in cyclophosphamide immunosuppressed mice; assay type: in vivo, C57BL/6 mice; settings: 50 mg/kg oral day -3, -2, -1, cyclophosphamide 250 mg/kg iv day 0; for red bone marrow cell count: day +5 (FIG. 6); for white bone marrow cell count: day +5 (FIG. 7)
Experimental: Female C57BL/6 mice, 6 to 8 week old, were immunosuppressed by treatment with 250 mg/kg of cyclophosphamide administered intravenously at day 0. To examine the immunoprotective effect of Compound I and Compound II, mice were pre-treated orally at day −3, −2 and −1 with 50 mg/kg of each compound. Mice were sacrificed at day +5 by cardiac puncture and cervical dislocation. Then, a gross pathological observation of the femurs (as a source of bone marrow cells) was recorded. After the sacrifice, tissues were crushed in PBS buffer and cells were counted on a hemacytometer.

[5] = tested on: 5/6-nephrectomized (NX) rats; assay: 5/6-nephrectomy model of kidney fibrosis; assay type: in vivo, Wistar rats
Experimental: Male 6-week old Wistar rats were subjected to […] (5/6-NX) or sham operations. Under ketamine anesthesia (60 to 100 mg/kg, i.p.), two-thirds of the left kidney was removed on day 0 followed by the right total nephrectomy on day 7. Sham operated rats underwent exposition of the kidneys and removal of the perirenal fat. Animals that underwent the sham operation were given vehicle (saline) and were used as controls. 5/6-NX animals were treated by gastric gavage with the vehicle or Compound I administered daily at 10 and 50 mg/kg, respectively. Animals were treated from day 1 to 132 and were sacrificed at day 133. To evaluate renal function, creatinine clearance was measured at day 21 and every subsequent three weeks. Glomerular filtration rate (GFR) was then calculated. Serum urea, serum creatinine and kidney CTGF along with histological lesion score were also evaluated.

UUO rats = assay: Unilateral Ureteral Obstruction (UUO) rat model; assay type: in vivo, Sprague-Dawley rats
Experimental: The effect of treatment with Compound I was studied on the Unilateral Ureteral Obstruction (UUO) model, a model of kidney interstitial fibrosis. Sprague-Dawley rats were used at 6-8 weeks of age and 200-250 g in body weight. Rats were sedated by general anesthesia (isoflurane), then an incision was made in the left side of the back, and the left proximal ureter was exposed and triple-ligated. Sham-operated rats had their ureter exposed but not ligated. Rats were treated by oral gavage from day 1 to 13. Rats were sacrificed on day 14.

[6] = tested on: human proximal tubule epithelial cells (HK-2); assay: TGF-β induced epithelial to mesenchymal transition (EMT), real-time PCR; assay type: cell-based
Experimental: Further analysis was undertaken to determine the effect of Compound I on EMT. The effect of Compound I on TGF-β induced EMT was analyzed on human proximal tubule epithelial cells (HK-2). To assess the progression of EMT, the pro-epithelial marker E-cadherin and the mesenchymal/pro-fibrotic markers CTGF and collagen 1 were assayed by quantitative real-time PCR. To examine the prospective efficacy of Compound I in inhibiting TGF-β-induced EMT, we first verified the ability of TGF-β to induce EMT in HK-2 cells.

[7] = oral treatment, mRNA, dose-response
[8] = Compound alone, normal HK-2 cells

## CCCCCCCCC(Oc1ccc(C(=O)CCCCC)cc1)C(=O)[O-].[Na+] (racemic) [Compound X, Sodium (RS)-2-[4-Hexanoylphenoxy]decanoate]
other
  melting point: 275 to 280 °C

## CCCCCCCC(=O)c1cccc2c1CC(C(=O)O)C2 (racemic) [Compound XXVI, Sodium (RS)-4-Octanoylindane-2-carboxylate]
[1]; 100 μM
  inhibition at 100 µM: 59%

## CCCCCCCC(=O)c1ccc2c(c1)CC(C(=O)O)C2 (racemic) [Compound III, Sodium (RS)-5-Octanoylindane-2-carboxylate]
[1]; 62.5 μM
  inhibition at 62.5 µM: 45%

## CCCCCCCC(=O)c1ccc(OC(CCCCCC)C(=O)[O-])cc1.[Na+] (racemic) [Compound VIII, Sodium (RS)-2-[4-Octanoylphenoxy]octanoate]
other
  melting point: 165 to 170 °C

## CCCCCCCCC(Oc1ccc(C(=O)CCCCCCC)cc1)C(=O)[O-].[Na+] (racemic) [Compound I, Sodium (RS)-2-[4-Octanoylphenoxy]decanoate]
[2]
  IL-12 production under inflammatory conditions: increases IL-12 production in vitro (RAW.264 cells) only when inflammation is present
[1]; 7.5 μM
  inhibition at 7.5 µM: 41%
[3]; FIG. 4
  histological micrographs of doxorubicin-induced lesions: protects the kidney against doxorubicin toxicity
[3]
  serum albumin: inhibits the decrease of serum albumin
[3]; oral treatment, p<0.01 (FIG. 5)
  serum CTGF: significant inhibition of CTGF production in serum
[3]; prophylactic treatment, day 11, glomerular and tubular level (FIG. 3)
  histological kidney lesions score: reduces the kidney lesions at the glomerular and tubular level
[4]
  red bone marrow cell count: significant increase in red bone marrow cell count
  white bone marrow cell count: increase in white bone marrow cell count
[5]; 10 mg/kg, day 21 to 105 (FIG. 13)
  urinary excretion of MCP-1: markedly reduced; also recorded: significantly decreased (from day 84)
[5]; 10 mg/kg, day 63 and day 84 (FIG. 10)
  proteinuria: reduction of proteinuria; also recorded: reduces proteinuria
[5]; 10 and 50 mg/kg oral, day 1 to day 132 (FIG. 11)
  serum urea: decreased serum urea
[5]; 10 and 50 mg/kg oral, day 84 and day 105 (FIG. 9)
  GFR expressed as percent of improvement: improvement of GFR at day 84 and day 105
[5]; 10 and 50 mg/kg oral, day 126 (FIG. 9)
  GFR expressed as percent of improvement (renal functions): deteriorated but to a lesser extent than that observed in the non-treated animals
[5]; 10 and 50 mg/kg, day 126 (FIG. 12)
  serum creatinine: decreased serum creatinine
[5]; 10 or 50 mg/kg (FIG. 15)
  interstitial and glomerular fibrosis/sclerosis (histology): reduction of interstitial and glomerular fibrosis/sclerosis
[5]; oral 10 mg/kg
  CTGF expression in the remnant kidney (real-time PCR): decreases significantly
  TGF-β expression in the remnant kidney (real-time PCR): decreases significantly
  collagen 1 expression in the remnant kidney (real-time PCR): decreases significantly
  α-SMA expression in the remnant kidney (real-time PCR): decreases significantly
[5]; oral 10 mg/kg (FIG. 16)
  kidney CTGF expression (Northern blot): reduction of connective tissue growth factor (CTGF) expression
[5]; oral 50 mg/kg
  need for Ringer's lactate solution over the period of treatment: did not require Ringer's lactate solution
[5]; oral 10 and 50 mg/kg (FIG. 17)
  survival rate: increases the survival rate
[5]; oral 10 or 50 mg/kg, relative to untreated 5/6-NX group (FIG. 14)
  kidney IL-12p40 level: significant (p=0.04 at 10 mg/kg) increase in IL-12p40
[5]; oral, day 126, p=0.08 (FIG. 8)
  GFR: improvement of GFR
UUO rats; 50 mg/kg (FIG. 19)
  kidney MCP-1: significantly reduced
UUO rats; oral 10 and 50 mg/kg, day 1 to 13 (FIG. 18)
  serum albumin: prevented
UUO rats; oral treatment, mRNA
  TGF-β expression in the kidney: reduced TGF-β expression
UUO rats; [7]
  expression of CTGF in the kidney: significant dose-response inhibition
  expression of collagen 1 in the kidney: significant dose-response inhibition
[6]; [8]
  basal expression of CTGF: downregulate basal expression
  basal expression of collagen 1: downregulate basal expression
[6]; TGF-β induced EMT cells (FIG. 20)
  E-cadherin transcript expression: upregulation of E-cadherin
[6]; TGF-β induced EMT cells (FIG. 21)
  CTGF transcript expression: downregulation
[6]; TGF-β induced EMT cells (FIG. 22)
  collagen 1 transcript expression: downregulation

## CCCCCCCCC(Oc1ccc(C(=O)CCC)cc1)C(=O)[O-].[Na+] (racemic) [Compound IX, Sodium (RS)-2-[4-Butyrylphenoxy]decanoate]
other
  melting point: 262 to 278 °C

## CCCCCCCC(=O)c1cccc(C(=O)[O-])c1.[Na+] [Compound II, Sodium 3-Octanoylbenzoate]
[3]
  serum albumin: inhibits the decrease of serum albumin
[4]
  red bone marrow cell count: significant increase in red bone marrow cell count
  white bone marrow cell count: increase in white bone marrow cell count
